Test results as given in US20110160303A1, “N-ALKYLCARBONYL-AMINO ACID ESTER AND N-ALKYLCARBONYL-AMINO LACTONE COMPOUNDS AND THEIR USE” (Edward Tak WEI, priority 2005, published 2011).

Tests used:
[1] = Octanol/water partition coefficient; format: physicochemical
Experimental: The octanol/water partition coefficients (given in log P units) for a number of compounds were determined and are shown in Table 7, together with the threshold for cooling on the tongue tested at 40 mM. […] A longer duration of action was not precisely matched with log P values.

[2] = test system: skin above the upper lip; assay: Cooling sensation on facial skin, ointment applied to skin above the upper lip; format: in vivo, human; conditions: skin above upper lip; for Duration of Skin Cooling: 40 mM (1% wt/vol) ointment; for Duration of Action On-Off (minutes): duration (offset minus onset) / Duration of Action On-Off (minutes): Off (offset): 40 mM Aquaphor ointment; for Duration of Action On-Off (minutes): On (onset): 40 mM (~1% wt/vol) Aquaphor ointment, 40 to 70 mg, time to reach 2 units of coolness; for Duration of Action On-Off (minutes): Off (offset): time when coolness drops below 2 units
Excerpt: A reliable place for topical application is the skin above the upper lip (above the vermilion border of the lips), on the philtrum, lateral to the philtrum until the nasolabial folds, and on the lower nostrils (subnasale). This part of the face is known to be densely innervated with cold receptors, second only to the surfaces of the eyeball and anogenitalia. A second location is on or below the malar eminence (cheekbone). The skin above the cheekbone is thicker than above the lips, and therefore has a higher threshold for activation. At both loci, tingling, cool and cold sensations in the skin may be experienced and rated for time of onset and intensity.
The intensity of the subjective skin sensation is rated as 0, 1, 2 or 3 with: 0 as no change; 1 as slight coolness, cold, or tingling; 2 as clear-cut signal of coolness, cold, or tingling; and 3 as robust cooling or cold. The intervals for recording sensations are 5 to 10 minutes, until two successive zeroes are obtained. The results (shown in FIGS. 1 and 2) are averaged values of 4 to 6 separate trials in the same individual. The data are plotted using SigmaPlot® (Systat Software, Point Richmond Calif.) and a smoothing function with a negative exponential was used for analysis and statistical fit of the results. Confirmatory trials of cooling action of the long-acting NACE compounds were obtained in 2 to 4 individuals but not quantified for some because of the large number of chemicals that were evaluated.
(§1) The onset of drug action is taken as the time to reach 2 units of coolness intensity, and offset of drug action is the time when coolness intensity drops below 2, after previously surpassing 2 units. The duration of cooling action is defined as the offset time minus the onset time. […] The quality of the sensation is noted, for example, as pure refreshing coolness, or if the sensation is accompanied by irritation (stinging or burning). The quality of the sensation is not rated for intensity.
For bioassay on the skin, approximately 30 mg was stirred and dissolved in 3 g of warm liquid Aquaphor® ointment to a yield a 40 mM (˜1% wt/vol) ointment. The exact amount was adjusted so that the molar equivalent was about 35 to 40 mM. After cooling, 40 to 70 mg of the solid ointment was placed on the tip of a plastic stick and applied to the skin above the upper lip, on the philtrum, and lateral to the philtrum, up to the nasolabial folds, of test subjects and the onset and duration of cooling sensations noted.
The intensity of the subjective skin sensation was rated as 0, 1, 2 or 3 with: 0 as no change; 1 as slight coolness, cold, or tingling; 2 as clear signal of coolness, cold, or tingling; and 3 as robust cooling or cold. The intervals for recording sensations were 5 to 10 minutes, until two successive zeroes were obtained. The results (shown in FIGS. 1 and 2) are averaged values of 4 to 6 separate trials in the same individual. The data are plotted using SigmaPlot® (Systat Software, Point Richmond, Calif., USA) and a smoothing function with a negative exponential was used for analysis and statistical fit of the results.
as §1, with “was” for “is”, “was also noted: such” for “is noted, for example,”
Test compounds were singly applied to the skin above the upper lips at a 40 to 70 mg dose of a 1% wt/vol ointment.

[3] = test system: tongue; assay: Threshold for cooling on the tongue; format: in vivo, human; conditions: threshold for cooling on the tongue
Experimental: Watson et al. (U.S. Pat. No. 4,178,459) tested the properties of N-substituted p-menthane carboxamides on volunteers by putting filter paper (1×1 cm), impregnated with a known amount of compound, onto the dorsal surface of the tongue of the test subject. After 30 seconds, the subject was required to report presence or absence of a cooling effect. […] The average threshold of (−)-menthol for 6 subjects was 0.25 μg, but there was a 100-fold variation in individual sensitivity. As noted above, coolness signals detected from the dorsal surface of the tongue may be confounded by gustatory, olfactory, and other variables, as well as by dilution from saliva. The octanol/water partition coefficients (given in log P units) for a number of compounds were determined and are shown in Table 7, together with the threshold for cooling on the tongue tested at 40 mM. […] A longer duration of action was not precisely matched with log P values.

Compound	Log P [1]	Duration of Skin Cooling [2]	Duration of Action On-Off (minutes): duration (offset minus onset) [2]	Threshold tongue [3] [µg]	Duration of Action On-Off (minutes): On (onset) [2] [min]	Duration of Action On-Off (minutes): Off (offset) [2] [min]	logP [1]
CCCCOc1ccc(NC(=O)C2CC(C)CCC2C(C)C)cc1 (stereo not drawn) [CPS-308]	6.9	not active	inactive				
CCOC(=O)CCNC(=O)C1CC(C)CCC1C(C)C (stereo not drawn) [β-Ala Et Ester]	3.1	1.4 h	87 min	1.5	3	90	
CCOc1ccc(NC(=O)C2CC(C)CCC2C(C)C)cc1 (stereo not drawn) [CPS-306]	5.8	not active	inactive				
COC(=O)C(NC(=O)C1CC(C)CCC1C(C)C)C(C)C [L-Val Me Ester]	4.2	not active	not active				
CCOC(=O)C(C)NC(=O)C1CC(C)CCC1C(C)C [L-Ala Et Ester]	3.1	0.7 h	44 min	0.4	8	52	
COC(=O)C1CCCN1C(=O)[C@@H]1C[C@H](C)CC[C@H]1C(C)C (stereo partly drawn) [Pro Me Ester]		not active	not active				3.3
COC(=O)CNC(=O)C1CC(C)CCC1C(C)C (stereo not drawn) [Gly Me Ester (WS-31), reference compound]	2.4	0.3 h	20 min	0.6	5	25	
COC(=O)C(C)NC(=O)C1CC(C)CCC1C(C)C [L-Ala Me Ester]	2.8	1.3 h	79 min	0.6	1	80	
COC(=O)CCC(NC(=O)C1CC(C)CCC1C(C)C)C(=O)OC (stereo not drawn) [Glu(OMe) Me Ester]	2.2	not active	not active				
COc1ccc(NC(=O)C2CC(C)CCC2C(C)C)c(OC)c1 (stereo not drawn) [CPS-309]	5.0	0.6 h	37 min		13	50	
CCC(C)NC(=O)C1CC(C)CCC1C(C)C (stereo not drawn) [WS-34, reference compound]	4.6	not active	inactive	0.7			
CCCOc1ccc(NC(=O)C2CC(C)CCC2C(C)C)cc1 (stereo not drawn) [CPS-310]	6.3	not active	inactive				
CC1CCC(C(C)C)C(C(=O)NC(C)C)C1 (stereo not drawn) [WS-10, reference compound]	4.1	0.3 h	19 min	0.4	6	25	
